Source: US20260132129A1 (Genesis Therapeutics, Inc., priority 2022, published 2026)

Target: T1, PI3Kα H1047R (T47D cells) (Homo sapiens, UniProt P42336, H1047R)
T1 construct: endogenous in cells; host or cells: T47D cells
Assay: PI3Kα cellular assay: pAKT HTRF in T47D cells after EGF stimulation
Format: cell-based
Conditions: for IC50: T47D cells (PI3Kα H1047R), pAKT S473 HTRF, EGF stimulation
Method in brief: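 pAKT read by HTRF in lysates of EGF-stimulated (20 ng/mL, 10 min) T47D H1047R cells. Before stimulation, serum-starved cells (16 h) received compound for 1 h at 37 °C, dosed from 10,000 nM down to 0.5 nM in 3-fold steps.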

T1 sequence (P42336 whole entry H1047R): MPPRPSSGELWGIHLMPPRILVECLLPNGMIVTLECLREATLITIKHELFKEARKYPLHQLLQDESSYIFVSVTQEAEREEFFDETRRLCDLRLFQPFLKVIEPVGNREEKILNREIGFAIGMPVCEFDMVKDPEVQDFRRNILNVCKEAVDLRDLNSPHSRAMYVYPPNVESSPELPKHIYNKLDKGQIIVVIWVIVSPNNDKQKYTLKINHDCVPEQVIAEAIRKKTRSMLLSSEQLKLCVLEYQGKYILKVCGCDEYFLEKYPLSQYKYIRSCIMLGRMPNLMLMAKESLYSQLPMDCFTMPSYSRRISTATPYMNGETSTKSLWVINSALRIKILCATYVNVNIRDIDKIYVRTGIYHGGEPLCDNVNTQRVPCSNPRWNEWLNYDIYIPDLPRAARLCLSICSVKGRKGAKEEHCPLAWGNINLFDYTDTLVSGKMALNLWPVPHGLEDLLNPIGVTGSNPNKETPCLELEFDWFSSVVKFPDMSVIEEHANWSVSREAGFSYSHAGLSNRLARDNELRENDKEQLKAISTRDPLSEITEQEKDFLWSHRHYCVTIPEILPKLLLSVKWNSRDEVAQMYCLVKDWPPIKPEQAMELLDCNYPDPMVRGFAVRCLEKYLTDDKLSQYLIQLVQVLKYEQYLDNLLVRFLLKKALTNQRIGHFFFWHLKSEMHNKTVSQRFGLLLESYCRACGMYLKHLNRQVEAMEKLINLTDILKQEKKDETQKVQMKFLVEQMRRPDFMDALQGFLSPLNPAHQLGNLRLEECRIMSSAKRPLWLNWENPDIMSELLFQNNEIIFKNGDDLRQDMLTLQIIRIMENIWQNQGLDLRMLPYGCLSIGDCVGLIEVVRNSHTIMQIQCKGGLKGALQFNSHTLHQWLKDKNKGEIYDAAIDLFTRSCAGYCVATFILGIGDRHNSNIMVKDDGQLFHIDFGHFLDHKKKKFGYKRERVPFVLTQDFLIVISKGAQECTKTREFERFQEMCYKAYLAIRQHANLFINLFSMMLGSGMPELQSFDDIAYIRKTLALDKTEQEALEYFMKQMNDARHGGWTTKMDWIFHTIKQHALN
T1 sequence (P27986 whole entry partner): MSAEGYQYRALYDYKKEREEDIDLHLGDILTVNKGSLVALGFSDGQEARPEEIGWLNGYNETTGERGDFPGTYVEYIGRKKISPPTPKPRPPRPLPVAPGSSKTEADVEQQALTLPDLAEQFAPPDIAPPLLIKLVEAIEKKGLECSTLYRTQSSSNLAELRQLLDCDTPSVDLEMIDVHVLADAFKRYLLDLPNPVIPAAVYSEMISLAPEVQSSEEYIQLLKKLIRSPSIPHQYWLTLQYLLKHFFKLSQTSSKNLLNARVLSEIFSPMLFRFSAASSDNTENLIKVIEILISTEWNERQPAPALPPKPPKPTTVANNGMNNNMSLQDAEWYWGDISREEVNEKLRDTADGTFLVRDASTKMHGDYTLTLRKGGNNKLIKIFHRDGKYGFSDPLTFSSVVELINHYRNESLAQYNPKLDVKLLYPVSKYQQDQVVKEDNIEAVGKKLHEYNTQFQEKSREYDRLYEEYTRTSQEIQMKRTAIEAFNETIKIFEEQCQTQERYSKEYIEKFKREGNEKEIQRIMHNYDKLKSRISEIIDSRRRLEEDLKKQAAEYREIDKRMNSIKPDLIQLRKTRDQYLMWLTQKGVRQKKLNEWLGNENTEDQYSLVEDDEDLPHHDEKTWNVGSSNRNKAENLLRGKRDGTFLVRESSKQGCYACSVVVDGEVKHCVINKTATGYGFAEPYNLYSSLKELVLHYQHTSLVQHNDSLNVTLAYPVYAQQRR

Structure (SMILES) | T47D pAKT S473 HTRF IC50 (H1047R): T47D (H1047R) selectivity over SKBR3 (WT) | IC50 [nM]
Cc1cc([C@H](C)Nc2ccccc2C(=O)O)c2nc(-c3ccc(C4CN(C)C4)nc3)c(C)c(=O)n2c1 [Compound 1343] | C (C denotes ≤5-fold) | –
Cc1cc([C@@H](C)Nc2ccccc2S(N)(=O)=O)c2nc(-c3ccc(C4CCNCC4)nc3)c(C)c(=O)n2c1 [Compound 1344] | B (B denotes 20-fold≥value>5-fold) | –
Cc1cc([C@H](C)Nc2ccccc2S(N)(=O)=O)c2nc(-c3ccc(C4CCNCC4)nc3)c(C)c(=O)n2c1 [Compound 1345] | C (C denotes ≤5-fold) | –
Cc1cc([C@@H](C)Nc2ccccc2C(=O)NS(=O)(=O)N(C)C)c2nc(-c3cccc(F)c3)c(C)c(=O)n2c1 [Compound 1346] | C (C denotes ≤5-fold) | –
Cc1cc([C@H](C)Nc2ccccc2C(=O)NS(=O)(=O)N(C)C)c2nc(-c3cccc(F)c3)c(C)c(=O)n2c1 [Compound 1347] | B (B denotes 20-fold≥value>5-fold) | –
Cc1cn2c(=O)c(C)c(-c3cccc(F)c3)nc2c(C(C)Nc2ccccc2C(=O)O)c1C (stereo not drawn) [Compound 1348] | A (A denotes >20-fold) | < 100
Cc1cc([C@H](C)Nc2ccccc2C(=O)NS(C)(=O)=O)c2cc(-c3cccc(F)c3)c(C)c(=O)n2c1 [Compound 1351] | C (C denotes ≤5-fold) | –
Cc1cc(C(C)Nc2ccccc2C(=O)O)c2nc(C3CCCOC3)c(C#N)c(=O)n2c1 (stereo not drawn) [Compound 1353] | A (A denotes >20-fold) | 100 to 500
Cc1cc([C@@H](C)Nc2ccccc2S(C)(=O)=O)c2nc(-c3ccc(C4CCC(C)CC4)cc3)c(C)c(=O)n2c1 (stereo partly drawn) [Compound 1354] | C (C denotes ≤5-fold) | –
Cc1cc(C(C)Nc2cccc3onc(O)c23)c2nc(-c3cccc(F)c3)c(C)c(=O)n2c1 (stereo not drawn) [Compound 1356] | A (A denotes >20-fold) | –
Cc1ccc(N[C@H](C)c2cc(C)cn3c(=O)c(C)c(-c4cccc(F)c4)nc23)c(C(=O)O)c1 [Compound 1357] | C (C denotes ≤5-fold) | –
Cc1cc([C@@H](C)Nc2ccccc2C(=O)O)c2cc([C@@H]3CCCOC3)c(C#N)c(=O)n2c1 [Compound 1361] | A (A denotes >20-fold) | –
Cc1cc([C@H](C)Nc2ccccc2C(=O)O)c2nc(C3CCCOC3)c(C#N)c(=O)n2c1 (stereo partly drawn) [Compound 1364] | C (C denotes ≤5-fold) | > 2000
Cc1cc(C(C)Nc2cccc3onc(O)c23)c2nc(-c3cccnc3)c(C)c(=O)n2c1 (stereo not drawn) [Compound 1365, 9-(1-((3-hydroxybenzo[d]isoxazol-4-yl)amino)ethyl)-3,7-dimethyl-2-(pyridin-3-yl)-4H-pyrido[1,2-a]pyrimidin-4-one] | A (A denotes >20-fold) | 100 to 500
Cc1cc(C(C)Nc2ccccc2-c2cc(O)no2)c2nc(-c3cccc(F)c3)c(C)c(=O)n2c1 (stereo not drawn) [Compound 1367, 2-(3-fluorophenyl)-9-(1-((2-(3-hydroxyisoxazol-5-yl)phenyl)amino)ethyl)-3,7-dimethyl-4H-pyrido[1,2-a]pyrimidin-4-one] | A (A denotes >20-fold) | 100 to 500
Cc1cc([C@@H](C)Nc2ccccc2-c2cc(O)no2)c2nc(-c3cccc(F)c3)c(C)c(=O)n2c1 [Compound 1368, (R)-2-(3-fluorophenyl)-9-(1-((2-(3-hydroxyisoxazol-5-yl)phenyl)amino)ethyl)-3,7-dimethyl-4H-pyrido[1,2-a]pyrimidin-4-one] | C (C denotes ≤5-fold) | > 2000

Structure (SMILES) | T47D pAKT S473 HTRF IC50 (H1047R): T47D (H1047R) selectivity over SKBR3 (WT) | IC50 [nM]
Cc1cc([C@@H](C)Oc2ccccc2C(=O)O)c2nc(-c3cccc(F)c3)c(C)c(=O)n2c1 [Compound 1372] | C (C denotes ≤5-fold) | > 2000
Cc1cc([C@H](C)Oc2ccccc2C(=O)O)c2nc(-c3cccc(F)c3)c(C)c(=O)n2c1 [Compound 1373] | C (C denotes ≤5-fold) | > 2000
Cc1cc(C(C)Nc2cccc3onc(O)c23)c2nc(-c3cccc(F)c3)c(C)c(=O)n2c1 (stereo not drawn) [Compound 1375] | C (C denotes ≤5-fold) | > 2000
Cc1cc(C(C)Oc2ccccc2C2(O)CS(=O)(=O)C2)c2nc(-c3cccc(F)c3)c(C)c(=O)n2c1 (stereo not drawn) [Compound 1382] | A (A denotes >20-fold) | –
Cc1cc(C(C)Nc2ccccc2C2(O)COC2)c2nc(-c3cccc(F)c3)c(C)c(=O)n2c1 (stereo not drawn) [Compound 1389, 2-(3-fluorophenyl)-9-(1-((2-(3-hydroxyoxetan-3-yl)phenyl)amino)ethyl)-3,7-dimethyl-4H-pyrido[1,2-a]pyrimidin-4-one] | B (B denotes 20-fold≥value>5-fold) | 500 to 2000
Cc1cc([C@@H](C)Oc2ccccc2C2(O)CS(=O)(=O)C2)c2nc(-c3cccc(F)c3)c(C)c(=O)n2c1 [Compound 1392] | C (C denotes ≤5-fold) | > 2000
Cc1cc([C@@H](C)Nc2ccccc2C2(O)COC2)c2nc(-c3cccc(F)c3)c(C)c(=O)n2c1 [Compound 1399] | A (A denotes >20-fold) | 100 to 500
Cc1cc([C@H](C)Nc2cccc3onc(O)c23)c2nc(-c3ccccc3)c(C)c(=O)n2c1 [Compound 1403] | C (C denotes ≤5-fold) | –
Cc1cc([C@H](C)Nc2ccccc2-c2ccnnc2)c2cc([C@H]3CCCOC3)c(C)c(=O)n2c1 [Compound 1406] | A (A denotes >20-fold) | –
Cc1cc([C@H](C)Nc2ccccc2-c2ccnnc2)c2nc([C@@H]3CCCOC3)c(C)c(=O)n2c1 [Compound 1407] | A (A denotes >20-fold) | < 100
Cc1cc(C(C)Nc2ccccc2C(=O)O)c2nc(-c3ccncc3)c(C)c(=O)n2c1 (stereo not drawn) [Compound 1408, 2-((1-(3,7-dimethyl-4-oxo-2-(pyridin-4-yl)-4H-pyrido[1,2-a]pyrimidin-9-yl)ethyl)amino)benzoic acid] | A (A denotes >20-fold) | < 100
Cc1cc(C(C)Nc2ccsc2-c2ccnnc2)c2nc(N3Cc4ccccc4C3)c(C)c(=O)n2c1 (stereo not drawn) [Compound 1409, 2-(isoindolin-2-yl)-3,7-dimethyl-9-(1-((2-(pyridazin-4-yl)thiophen-3-yl)amino)ethyl)-4H-pyrido[1,2-a]pyrimidin-4-one] | A (A denotes >20-fold) | 100 to 500
Cc1cc(C(C)Nc2ccccc2C(=O)O)c2nc(-c3cnc4c(c3)c(C)c(C)n4C)c(C)c(=O)n2c1 (stereo not drawn) [Compound 1410, 2-((1-(3,7-dimethyl-4-oxo-2-(1,2,3-trimethyl-1H-pyrrolo[2,3-b]pyridin-5-yl)-4H-pyrido[1,2-a]pyrimidin-9-yl)ethyl)amino)benzoic acid] | A (A denotes >20-fold) | < 100
Cc1cc(C(C)Nc2ccccc2C(=O)O)c2nc(-c3cnc4c(c3)c(C)nn4C)c(C)c(=O)n2c1 (stereo not drawn) [Compound 1411, 2-((1-(2-(1,3-dimethyl-1H-pyrazolo[3,4-b]pyridin-5-yl)-3,7-dimethyl-4-oxo-4H-pyrido[1,2-a]pyrimidin-9-yl)ethyl)amino)benzoic acid] | A (A denotes >20-fold) | < 100
Cc1cc(C(C)Nc2ccccc2C(=O)O)c2nc(N3Cc4ccccc4C3)c(C)c(=O)n2c1.O=C(O)C(F)(F)F (stereo not drawn) [Compound 1412, 2-((1-(2-(isoindolin-2-yl)-3,7-dimethyl-4-oxo-4H-pyrido[1,2-a]pyrimidin-9-yl)ethyl)amino)benzoic acid trifluoroacetate] | A (A denotes >20-fold) | < 100
Cc1cc(C(C)Nc2ccccc2C(=O)O)c2nc(-c3cc(C)c4oc(=O)[nH]c4c3)cc(=O)n2c1 (stereo not drawn) [Compound 1413, 2-((1-(7-methyl-2-(7-methyl-2-oxo-2,3-dihydrobenzo[d]oxazol-5-yl)-4-oxo-4H-pyrido[1,2-a]pyrimidin-9-yl)ethyl)amino)benzoic acid] | A (A denotes >20-fold) | 100 to 500
